Measured values reported in US11911361B2, “Stable cannabinoid formulations” (priority 2014, dated 2024).

How the values were obtained:
[1] = system: minimal muscular or neurological impairment; experiment: Minimal motor impairment toxicity test (TOX), rats; type: in vivo; conditions: Anticonvulsant Screening
[2] = Minimal motor impairment (rotorod) toxicity test (TOX), mice; conditions: in vivo
[3] = system: paclitaxel-induced mechanical sensitivity; experiment: Paclitaxel induced neuropathic pain study (Von Frey mechanical sensitivity); type: in vivo, mice
[4] = system: Metrazol-induced clonic seizure; experiment: Subcutaneous Metrazol (sc Met) seizure test; conditions: for Sc MET N/F (animals protected/tested): mice; for ED50: Mus musculus, sc
U87 cells = experiment: Orthotopic mouse model of glioblastoma multiforme, U87 cells
[5] = system: psychomotor seizure induced by 6 Hz stimulation; experiment: Minimal clonic seizure (6 Hz) psychomotor seizure test; conditions: intraperitoneal; for 6 HZ N/F (animals protected/tested): Anticonvulsant Screening, mice; for 6 Hz N/F (animals protected/tested) / 6 Hz N/F: CF1 mice; for ED50: Mus musculus, ip; for 6 Hz N/F: Time to Peak Effect (Table 54), 300 mg/kg

With `C=C(C)[C@@H]1CCC(C)=C[C@H]1c1c(O)cc(CCCCC)cc1O` [cannabidiol, (−)-trans-2-p-mentha-1,8-dien-3-yl-5-pentylresorcinol] the “TOX N/F (minimal motor impairment)” value ([1]; dose 30, 1.0 h, ethanol:polyethoxylated castor oil:PBS) was 0/4, the “TOX N/F (minimal motor impairment)” value ([1]; dose 30, 1.0 h, methylcellulose) was 0/4 and the “TOX N/F (minimal motor impairment)” value ([1]; dose 30, 2.0 h, ethanol:polyethoxylated castor oil:PBS) was 0/4. For the same compound, the “TOX N/F (minimal motor impairment)” value ([1]; dose 30, 2.0 h, methylcellulose) was 0/4, the “TOX N/F (minimal motor impairment)” value ([1]; dose 30, 4.0 h, ethanol:polyethoxylated castor oil:PBS) was 0/4 and the “TOX N/F (minimal motor impairment)” value ([1]; dose 30, 4.0 h, methylcellulose) was 0/4. The “TOX N/F (minimal motor impairment)” value ([1]; dose 100, 1.0 h, ethanol:polyethoxylated castor oil:PBS) was 0/4, the “TOX N/F (minimal motor impairment)” value ([1]; dose 100, 1.0 h, methylcellulose) was 0/4 and the “TOX N/F (minimal motor impairment)” value ([1]; dose 100, 2.0 h, ethanol:polyethoxylated castor oil:PBS) was 0/4. For the same compound, the “TOX N/F (minimal motor impairment)” value ([1]; dose 100, 2.0 h, methylcellulose) was 0/4, the “TOX N/F (minimal motor impairment)” value ([1]; dose 100, 4.0 h, ethanol:polyethoxylated castor oil:PBS) was 0/4 and the “TOX N/F (minimal motor impairment)” value ([1]; dose 100, 4.0 h, methylcellulose) was 0/4. The TD50 at 2 h ([2]; CF1, mouse, TD50, Example 12, 1:1:18 ethanol:polyethoxylated castor oil:PBS solvent) was 262 mg/kg, the TD50 at 0.5 hours ([2]; CF1, mouse, TD50, Example 12, methylcellulose solvent, 0.5 hours post administration) was > 500 mg/kg and the TD50 at 2 h ([2]; mouse, TD50, Example 13, 1:1:18 ethanol:polyethoxlated castor oil:PBS solvent) was 267 mg/kg. The TD50 at 2 h ([2]; mouse, TD50, Example 13, methylcellulose solvent) was > 500 mg/kg, the “alleviating chemotherapy-induced neuropathic pain (in words)” value ([3]; Example 7, IP, Day 21) was “most effective level of alleviating chemotherapy-induced neuropathic pain” and the minimal effective dose ([3]; IP) was 1.25 mg/kg. For the same compound, the “effect on paclitaxel-induced mechanical sensitivity (in words)” value ([3]; pretreatment 15 minutes prior to each paclitaxel injection, IP) was “significantly attenuated”, the “Sc MET N/F (animals protected/tested)” value ([4]; ED50 Biological Response (Table 57), 150 mg/kg, 2 h, methylcellulose) was 1/8 and the “Sc MET N/F (animals protected/tested)” value ([4]; ED50 Biological Response (Table 57), 300 mg/kg, 2 h, methylcellulose) was 5/8. The “Sc MET N/F (animals protected/tested)” value ([4]; ED50 Biological Response (Table 57), 360 mg/kg, 2 h, methylcellulose) was 7/8, the “Sc MET N/F (animals protected/tested)” value ([4]; ED50 Biological Response (Table 59), 120 mg/kg, 2 h, ethanol:polyethoxylated castor oil:PBS) was 0/8 and the “Sc MET N/F (animals protected/tested)” value ([4]; ED50 Biological Response (Table 59), 160 mg/kg, 2 h, ethanol:polyethoxylated castor oil:PBS) was 2/8. For the same compound, the “Sc MET N/F (animals protected/tested)” value ([4]; ED50 Biological Response (Table 59), 220 mg/kg, 2 h, ethanol:polyethoxylated castor oil:PBS) was 5/8, the “Sc MET N/F (animals protected/tested)” value ([4]; ED50 Biological Response (Table 59), 260 mg/kg, 2 h, ethanol:polyethoxylated castor oil:PBS) was 7/8 and the ED50 ([4]; 1:1:18 ethanol:polyethoxlated castor oil:PBS solvent) was 199 mg/kg. For the same compound, the ED50 ([4]; methylcellulose solvent) was 241 mg/kg, the “Sc MET N/F (animals protected/tested)” value ([4]; Tables 57/58, 200 mg/kg, 2 h, methylcellulose) was 3/8 and the “Sc MET N/F (animals protected/tested)” value ([4]; Time to Peak Effect (Table 58), 200 mg/kg, 0.25 h, methylcellulose) was 0/4. The “Sc MET N/F (animals protected/tested)” value ([4]; Time to Peak Effect (Table 58), 200 mg/kg, 0.5 h, methylcellulose) was 0/4, the “Sc MET N/F (animals protected/tested)” value ([4]; Time to Peak Effect (Table 58), 200 mg/kg, 1 h, methylcellulose) was 2/8 and the “glioblastoma multiforme progression (in words)” value (U87 cells; 15 mg/kg alone, intraperitoneal) was “did not inhibit glioblastoma multiforme progression”. The “effect on antitumor activity of temozolomide (in words)” value (U87 cells; 15 mg/kg with temozolomide 2 mg/kg, intraperitoneal) was “enhanced the antitumor activity of suboptimal doses of temozolomide leading to a significant increase in survival”, the “full regression of tumors” value (U87 cells; mouse, in vivo) was 20% and the “6 HZ N/F (animals protected/tested)” value ([5]; 10 mg/kg, 0.5 h, ethanol:polyethoxylated castor oil:PBS) was 0/4. For the same compound, the “6 HZ N/F (animals protected/tested)” value ([5]; 10 mg/kg, 0.5 h, methylcellulose) was 0/4, the “6 HZ N/F (animals protected/tested)” value ([5]; 10 mg/kg, 1.0 h, ethanol:polyethoxylated castor oil:PBS) was 0/4 and the “6 HZ N/F (animals protected/tested)” value ([5]; 10 mg/kg, 1.0 h, methylcellulose) was 0/4. For the same compound, the “6 HZ N/F (animals protected/tested)” value ([5]; 10 mg/kg, 2.0 h, ethanol:polyethoxylated castor oil:PBS) was 0/4, the “6 HZ N/F (animals protected/tested)” value ([5]; 10 mg/kg, 2.0 h, methylcellulose) was 0/4 and the “6 HZ N/F (animals protected/tested)” value ([5]; 30 mg/kg, 0.5 h, ethanol:polyethoxylated castor oil:PBS) was 0/4. For the same compound, the “6 HZ N/F (animals protected/tested)” value ([5]; 30 mg/kg, 0.5 h, methylcellulose) was 0/4, the “6 HZ N/F (animals protected/tested)” value ([5]; 30 mg/kg, 1.0 h, ethanol:polyethoxylated castor oil:PBS) was 0/4 and the “6 HZ N/F (animals protected/tested)” value ([5]; 30 mg/kg, 1.0 h, methylcellulose) was 0/4. The “6 HZ N/F (animals protected/tested)” value ([5]; 30 mg/kg, 2.0 h, ethanol:polyethoxylated castor oil:PBS) was 0/4, the “6 HZ N/F (animals protected/tested)” value ([5]; 30 mg/kg, 2.0 h, methylcellulose) was 0/4 and the “6 HZ N/F (animals protected/tested)” value ([5]; 100 mg/kg, 0.5 h, ethanol:polyethoxylated castor oil:PBS) was 2/4. For the same compound, the “6 HZ N/F (animals protected/tested)” value ([5]; 100 mg/kg, 0.5 h, methylcellulose) was 1/4, the “6 HZ N/F (animals protected/tested)” value ([5]; 100 mg/kg, 1.0 h, ethanol:polyethoxylated castor oil:PBS) was 0/4 and the “6 HZ N/F (animals protected/tested)” value ([5]; 100 mg/kg, 1.0 h, methylcellulose) was 0/4. For the same compound, the “6 HZ N/F (animals protected/tested)” value ([5]; 100 mg/kg, 2.0 h, ethanol:polyethoxylated castor oil:PBS) was 0/4, the “6 HZ N/F (animals protected/tested)” value ([5]; 100 mg/kg, 2.0 h, methylcellulose) was 0/4 and the “6 Hz N/F (animals protected/tested)” value ([5]; ED50 Biological Response (Table 53), 30 mg/kg, 0.5 h, methylcellulose) was 0/8. The “6 Hz N/F (animals protected/tested)” value ([5]; ED50 Biological Response (Table 53), 65 mg/kg, 0.5 h, methylcellulose) was 5/8, the “6 Hz N/F (animals protected/tested)” value ([5]; ED50 Biological Response (Table 53), 130 mg/kg, 0.5 h, methylcellulose) was 5/8 and the “6 Hz N/F (animals protected/tested)” value ([5]; ED50 Biological Response (Table 53), 160 mg/kg, 0.5 h, methylcellulose) was 8/16. For the same compound, the “6 Hz N/F (animals protected/tested)” value ([5]; ED50 Biological Response (Table 53), 190 mg/kg, 0.5 h, methylcellulose) was 7/8, the “6 Hz N/F (animals protected/tested)” value ([5]; ED50 Biological Response (Table 55), 50 mg/kg, 0.5 h, ethanol:polyethoxylated castor oil:PBS) was 1/8 and the “6 Hz N/F (animals protected/tested)” value ([5]; ED50 Biological Response (Table 55), 100 mg/kg, 0.5 h, ethanol:polyethoxylated castor oil:PBS) was 1/8. The “6 Hz N/F (animals protected/tested)” value ([5]; ED50 Biological Response (Table 55), 130 mg/kg, 0.5 h, ethanol:polyethoxylated castor oil:PBS) was 4/8, the “6 Hz N/F (animals protected/tested)” value ([5]; ED50 Biological Response (Table 55), 170 mg/kg, 0.5 h, ethanol:polyethoxylated castor oil:PBS) was 6/8 and the “6 Hz N/F (animals protected/tested)” value ([5]; ED50 Biological Response (Table 55), 200 mg/kg, 0.5 h, ethanol:polyethoxylated castor oil:PBS) was 8/8. For the same compound, the ED50 ([5]; 1:1:18 ethanol:polyethoxylated castor oil:PBS solvent) was 122 mg/kg, the ED50 ([5]; methylcellulose solvent) was 104 mg/kg and the “6 Hz N/F” value ([5]; 0.25 h, methylcellulose) was 1/8. For the same compound, the “6 Hz N/F” value ([5]; 0.5 h, methylcellulose) was 0/8, the “6 Hz N/F” value ([5]; 1 h, methylcellulose) was 0/8 and the “6 Hz N/F” value ([5]; 2 h, methylcellulose) was 0/8. For the same compound, the “6 Hz N/F” value ([5]; 4 h, methylcellulose) was 0/8 and the “6 Hz N/F” value ([5]; 6 h, methylcellulose) was 0/8.
